Results as given in ChEMBL document CHEMBL4033793, “Potent and Selective Inhibitors of Human Sirtuin 5” (J Med Chem, 2018).
Residues, ends and D or L forms follow the SMILES beside them. *: point of attachment. X51 = O=C(O)[C@@H](CC(=O)*)SCc1ccc([N+](=O)[O-])cc1; X27 = O=C(O)[C@H](CC(=O)*)SCc1ccc([N+](=O)[O-])cc1; X65 = O=C(O)[C@H](CC(=O)*)SCc1cccc([N+](=O)[O-])c1; X35 = O=C(O)[C@@H](CC(=O)*)SCc1ccc(C(F)(F)F)cc1; X71 = O=C(O)[C@@H](CC(=O)*)SCc1cccc(C(F)(F)F)c1; X63 = O=C(O)[C@@H](CC(=O)*)SCc1ccc(Cl)c(Cl)c1; X17 = O=C(O)[C@@H](CC(=O)*)Sc1cc(Cl)cc(Cl)c1; X28 = O=C(O)[C@@H](CC(=O)*)Sc1ccc(Cl)c(Cl)c1; X39 = O=C(O)[C@H](CC(=O)*)Sc1cc(Cl)cc(Cl)c1; X72 = O=C(O)[C@@H](CC(=O)*)SCc1cccc2ccccc12; X11 = O=C(O)[C@H](CC(=O)*)SCc1cccc2ccccc12; X29 = COc1ccc(S[C@@H](CC(=O)*)C(=O)O)cc1OC; X36 = O=C(O)[C@@H](CC(=O)*)Sc1ccc2ccccc2c1; X58 = O=C(O)[C@@H](CC(=O)*)Sc1cccc(Cl)c1Cl; X30 = COc1ccc(S[C@H](CC(=O)*)C(=O)O)cc1OC; X59 = O=C(O)[C@@H](CC(=O)*)SCc1ccc(Cl)cc1; X10 = Cc1noc(C)c1CCS[C@H](CC(=O)*)C(=O)O; X6 = Cc1noc(C)c1CCS[C@@H](CC(=O)*)C(=O)O; X61 = O=C(O)[C@@H](CC(=O)*)Sc1cccc(Cl)c1; X68 = Cc1ccc(S[C@H](CC(=O)*)C(=O)O)cc1C; X53 = O=C(O)[C@H](CC(=O)*)Sc1ccccc1Cl; X54 = O=C(O)[C@H](CC(=O)*)SCCc1ccccc1; X21 = O=C(O)[C@@H](CC(=O)*)SC1CCCCC1; X40 = O=C(O)[C@H](CC(=O)*)SCc1ccccc1; X69 = O=C(O)[C@@H](CC(=O)*)Sc1ccccc1; X5 = O=C(O)C(CC(=O)*)SCCc1ccccn1; X4 = O=C(O)C(CC(=O)*)Cc1ccccc1; Bz = O=C(c1ccccc1)*

Each molecule was assayed against NAD-dependent protein deacylase sirtuin-5, mitochondrial (Homo sapiens, UniProt Q9NXA8) (assay: Inhibition of human recombinant N-terminal Strep2-tagged SIRT5 expressed in Escherichia coli BL21 (DE3) using Abz-GVLK(glutaryl)AY(NO2)GV-NH2 as substrate in presence of NAD+ by fluorescence assay).
Chain of NAD-dependent protein deacylase sirtuin-5, mitochondrial (Q9NXA8 whole entry): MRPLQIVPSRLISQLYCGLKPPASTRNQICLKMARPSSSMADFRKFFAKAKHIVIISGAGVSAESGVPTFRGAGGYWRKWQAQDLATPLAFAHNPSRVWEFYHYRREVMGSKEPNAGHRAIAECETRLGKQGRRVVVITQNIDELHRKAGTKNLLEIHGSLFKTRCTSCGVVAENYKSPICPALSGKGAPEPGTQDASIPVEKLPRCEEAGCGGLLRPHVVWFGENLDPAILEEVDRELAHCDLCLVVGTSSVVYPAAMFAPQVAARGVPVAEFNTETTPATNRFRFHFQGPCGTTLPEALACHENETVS

Compound	IC50	Ki
CC(C)C[C@H](NC(=O)[C@@H](NC(=O)CNC(=O)c1ccccc1)C(C)C)C(=O)N[C@@H](CCCCNC(=O)C[C@H](SCc1ccccc1)C(=O)O)C(=O)N[C@@H](CCC(=O)O)C(=O)N[C@@H](Cc1ccc(O)cc1)C(=O)NCC(=O)N[C@H](C(N)=O)C(C)C (Bz-GVLK(X40)EYGV-NH2)	336 nM	
CC(C)C[C@H](NC(=O)[C@@H](NC(=O)CNC(=O)c1ccccc1)C(C)C)C(=O)N[C@@H](CCCCNC(=O)CC(SCCc1ccccn1)C(=O)O)C(=O)N[C@@H](CCC(=O)O)C(=O)N[C@@H](Cc1ccc(O)cc1)C(=O)NCC(=O)N[C@H](C(N)=O)C(C)C (some centres not stated) (Bz-GVLK(X5)EYGV-NH2)	6970 nM	
CC(C)C[C@H](NC(=O)[C@@H](NC(=O)CNC(=O)c1ccccc1)C(C)C)C(=O)N[C@@H](CCCCNC(=O)C[C@@H](SCc1cccc2ccccc12)C(=O)O)C(=O)N[C@@H](CCC(=O)O)C(=O)N[C@@H](Cc1ccc(O)cc1)C(=O)NCC(=O)N[C@H](C(N)=O)C(C)C (Bz-GVLK(X72)EYGV-NH2)	207 nM	
CC(C)C[C@H](NC(=O)[C@@H](NC(=O)CNC(=O)c1ccccc1)C(C)C)C(=O)N[C@@H](CCCCNC(=O)C[C@H](SCc1cccc2ccccc12)C(=O)O)C(=O)N[C@@H](CCC(=O)O)C(=O)N[C@@H](Cc1ccc(O)cc1)C(=O)NCC(=O)N[C@H](C(N)=O)C(C)C (Bz-GVLK(X11)EYGV-NH2)	15.4 nM	7 nM
CC(C)C[C@H](NC(=O)[C@@H](NC(=O)CNC(=O)c1ccccc1)C(C)C)C(=O)N[C@@H](CCCCNC(=O)C[C@H](SCc1ccc([N+](=O)[O-])cc1)C(=O)O)C(=O)N[C@@H](CCC(=O)O)C(=O)N[C@@H](Cc1ccc(O)cc1)C(=O)NCC(=O)N[C@H](C(N)=O)C(C)C (Bz-GVLK(X27)EYGV-NH2)	3730 nM	
CC(=O)N[C@@H](CC(C)C)C(=O)N[C@@H](CCCCNC(=O)CC(Sc1ccc2ccccc2c1)C(=O)O)C(=O)N[C@@H](C)C(N)=O (some centres not stated)	1080 nM	
CC(C)C[C@H](NC(=O)[C@@H](NC(=O)CNC(=O)c1ccccc1)C(C)C)C(=O)N[C@@H](CCCCNC(=O)C[C@@H](Sc1cc(Cl)cc(Cl)c1)C(=O)O)C(=O)N[C@@H](CCC(=O)O)C(=O)N[C@@H](Cc1ccc(O)cc1)C(=O)NCC(=O)N[C@H](C(N)=O)C(C)C (Bz-GVLK(X17)EYGV-NH2)	647 nM	
CC(C)C[C@H](NC(=O)[C@@H](NC(=O)CNC(=O)c1ccccc1)C(C)C)C(=O)N[C@@H](CCCCNC(=O)C[C@H](SCc1cccc([N+](=O)[O-])c1)C(=O)O)C(=O)N[C@@H](CCC(=O)O)C(=O)N[C@@H](Cc1ccc(O)cc1)C(=O)NCC(=O)N[C@H](C(N)=O)C(C)C (Bz-GVLK(X65)EYGV-NH2)	2710 nM	
CC(C)C[C@H](NC(=O)[C@@H](NC(=O)CNC(=O)c1ccccc1)C(C)C)C(=O)N[C@@H](CCCCNC(=O)C[C@@H](Sc1ccc2ccccc2c1)C(=O)O)C(=O)N[C@@H](CCC(=O)O)C(=O)N[C@@H](Cc1ccc(O)cc1)C(=O)NCC(=O)N[C@H](C(N)=O)C(C)C (Bz-GVLK(X36)EYGV-NH2)	1180 nM	
COc1ccc(S[C@@H](CC(=O)NCCCC[C@H](NC(=O)[C@H](CC(C)C)NC(=O)[C@@H](NC(=O)CNC(=O)c2ccccc2)C(C)C)C(=O)N[C@@H](CCC(=O)O)C(=O)N[C@@H](Cc2ccc(O)cc2)C(=O)NCC(=O)N[C@H](C(N)=O)C(C)C)C(=O)O)cc1OC (Bz-GVLK(X29)EYGV-NH2)	326 nM	
CC(C)C[C@H](NC(=O)[C@@H](NC(=O)CNC(=O)c1ccccc1)C(C)C)C(=O)N[C@@H](CCCCNC(=O)CC(Cc1ccccc1)C(=O)O)C(=O)N[C@@H](CCC(=O)O)C(=O)N[C@@H](Cc1ccc(O)cc1)C(=O)NCC(=O)N[C@H](C(N)=O)C(C)C (some centres not stated) (Bz-GVLK(X4)EYGV-NH2)	1120 nM	263 nM
CC(C)C[C@H](NC(=O)[C@@H](NC(=O)CNC(=O)c1ccccc1)C(C)C)C(=O)N[C@@H](CCCCNC(=O)C[C@H](SCCc1ccccc1)C(=O)O)C(=O)N[C@@H](CCC(=O)O)C(=O)N[C@@H](Cc1ccc(O)cc1)C(=O)NCC(=O)N[C@H](C(N)=O)C(C)C (Bz-GVLK(X54)EYGV-NH2)	2740 nM	
Cc1noc(C)c1CCS[C@@H](CC(=O)NCCCC[C@H](NC(=O)[C@H](CC(C)C)NC(=O)[C@@H](NC(=O)CNC(=O)c1ccccc1)C(C)C)C(=O)N[C@@H](CCC(=O)O)C(=O)N[C@@H](Cc1ccc(O)cc1)C(=O)NCC(=O)N[C@H](C(N)=O)C(C)C)C(=O)O (Bz-GVLK(X6)EYGV-NH2)	8750 nM	
CC(C)C[C@H](NC(=O)[C@@H](NC(=O)CNC(=O)c1ccccc1)C(C)C)C(=O)N[C@@H](CCCCNC(=O)C[C@@H](SC1CCCCC1)C(=O)O)C(=O)N[C@@H](CCC(=O)O)C(=O)N[C@@H](Cc1ccc(O)cc1)C(=O)NCC(=O)N[C@H](C(N)=O)C(C)C (Bz-GVLK(X21)EYGV-NH2)	> 14000 nM	
CC(C)C[C@H](NC(=O)[C@@H](NC(=O)CNC(=O)c1ccccc1)C(C)C)C(=O)N[C@@H](CCCCNC(=O)C[C@@H](SCc1ccc(Cl)c(Cl)c1)C(=O)O)C(=O)N[C@@H](CCC(=O)O)C(=O)N[C@@H](Cc1ccc(O)cc1)C(=O)NCC(=O)N[C@H](C(N)=O)C(C)C (Bz-GVLK(X63)EYGV-NH2)	780 nM	
CC(C)C[C@H](NC(=O)[C@@H](NC(=O)CNC(=O)c1ccccc1)C(C)C)C(=O)N[C@@H](CCCCNC(=O)C[C@@H](SCc1ccc([N+](=O)[O-])cc1)C(=O)O)C(=O)N[C@@H](CCC(=O)O)C(=O)N[C@@H](Cc1ccc(O)cc1)C(=O)NCC(=O)N[C@H](C(N)=O)C(C)C (Bz-GVLK(X51)EYGV-NH2)	4030 nM	
CC(C)C[C@H](NC(=O)[C@@H](NC(=O)CNC(=O)c1ccccc1)C(C)C)C(=O)N[C@@H](CCCCNC(=O)C[C@@H](SCc1ccc(Cl)cc1)C(=O)O)C(=O)N[C@@H](CCC(=O)O)C(=O)N[C@@H](Cc1ccc(O)cc1)C(=O)NCC(=O)N[C@H](C(N)=O)C(C)C (Bz-GVLK(X59)EYGV-NH2)	1020 nM	
CC(C)C[C@H](NC(=O)[C@@H](NC(=O)CNC(=O)c1ccccc1)C(C)C)C(=O)N[C@@H](CCCCNC(=O)C[C@@H](Sc1ccccc1)C(=O)O)C(=O)N[C@@H](CCC(=O)O)C(=O)N[C@@H](Cc1ccc(O)cc1)C(=O)NCC(=O)N[C@H](C(N)=O)C(C)C (Bz-GVLK(X69)EYGV-NH2)	1800 nM	
Cc1ccc(S[C@H](CC(=O)NCCCC[C@H](NC(=O)[C@H](CC(C)C)NC(=O)[C@@H](NC(=O)CNC(=O)c2ccccc2)C(C)C)C(=O)N[C@@H](CCC(=O)O)C(=O)N[C@@H](Cc2ccc(O)cc2)C(=O)NCC(=O)N[C@H](C(N)=O)C(C)C)C(=O)O)cc1C (Bz-GVLK(X68)EYGV-NH2)	1260 nM	
CC(C)C[C@H](NC(=O)[C@@H](NC(=O)CNC(=O)c1ccccc1)C(C)C)C(=O)N[C@@H](CCCCNC(=O)C[C@H](Sc1cc(Cl)cc(Cl)c1)C(=O)O)C(=O)N[C@@H](CCC(=O)O)C(=O)N[C@@H](Cc1ccc(O)cc1)C(=O)NCC(=O)N[C@H](C(N)=O)C(C)C (Bz-GVLK(X39)EYGV-NH2)	86.1 nM	
Cc1noc(C)c1CCS[C@H](CC(=O)NCCCC[C@H](NC(=O)[C@H](CC(C)C)NC(=O)[C@@H](NC(=O)CNC(=O)c1ccccc1)C(C)C)C(=O)N[C@@H](CCC(=O)O)C(=O)N[C@@H](Cc1ccc(O)cc1)C(=O)NCC(=O)N[C@H](C(N)=O)C(C)C)C(=O)O (Bz-GVLK(X10)EYGV-NH2)	18500 nM	
CC(=O)N[C@@H](CCCCNC(=O)C[C@H](Sc1ccc2ccccc2c1)C(=O)O)C(N)=O	7400 nM	
CC(C)C[C@H](NC(=O)[C@@H](NC(=O)CNC(=O)c1ccccc1)C(C)C)C(=O)N[C@@H](CCCCNC(=O)C[C@@H](Sc1cccc(Cl)c1Cl)C(=O)O)C(=O)N[C@@H](CCC(=O)O)C(=O)N[C@@H](Cc1ccc(O)cc1)C(=O)NCC(=O)N[C@H](C(N)=O)C(C)C (Bz-GVLK(X58)EYGV-NH2)	3390 nM	
COc1ccc(S[C@H](CC(=O)NCCCC[C@H](NC(=O)[C@H](CC(C)C)NC(=O)[C@@H](NC(=O)CNC(=O)c2ccccc2)C(C)C)C(=O)N[C@@H](CCC(=O)O)C(=O)N[C@@H](Cc2ccc(O)cc2)C(=O)NCC(=O)N[C@H](C(N)=O)C(C)C)C(=O)O)cc1OC (Bz-GVLK(X30)EYGV-NH2)	9080 nM	
O=C(C[C@H](Sc1ccc2ccccc2c1)C(=O)O)Nc1ccccc1	157000 nM	
CC(C)C[C@H](NC(=O)[C@@H](NC(=O)CNC(=O)c1ccccc1)C(C)C)C(=O)N[C@@H](CCCCNC(=O)C[C@@H](Sc1ccc(Cl)c(Cl)c1)C(=O)O)C(=O)N[C@@H](CCC(=O)O)C(=O)N[C@@H](Cc1ccc(O)cc1)C(=O)NCC(=O)N[C@H](C(N)=O)C(C)C (Bz-GVLK(X28)EYGV-NH2)	1610 nM	
CC(C)C[C@H](NC(=O)[C@@H](NC(=O)CNC(=O)c1ccccc1)C(C)C)C(=O)N[C@@H](CCCCNC(=O)C[C@@H](Sc1cccc(Cl)c1)C(=O)O)C(=O)N[C@@H](CCC(=O)O)C(=O)N[C@@H](Cc1ccc(O)cc1)C(=O)NCC(=O)N[C@H](C(N)=O)C(C)C (Bz-GVLK(X61)EYGV-NH2)	1380 nM	
CC(C)C[C@H](NC(=O)[C@@H](NC(=O)CNC(=O)c1ccccc1)C(C)C)C(=O)N[C@@H](CCCCNC(=O)C[C@@H](SCc1ccc(C(F)(F)F)cc1)C(=O)O)C(=O)N[C@@H](CCC(=O)O)C(=O)N[C@@H](Cc1ccc(O)cc1)C(=O)NCC(=O)N[C@H](C(N)=O)C(C)C (Bz-GVLK(X35)EYGV-NH2)	2200 nM	
CC(C)C[C@H](NC(=O)[C@@H](NC(=O)CNC(=O)c1ccccc1)C(C)C)C(=O)N[C@@H](CCCCNC(=O)C[C@H](Sc1ccccc1Cl)C(=O)O)C(=O)N[C@@H](CCC(=O)O)C(=O)N[C@@H](Cc1ccc(O)cc1)C(=O)NCC(=O)N[C@H](C(N)=O)C(C)C (Bz-GVLK(X53)EYGV-NH2)	857 nM	
CC(C)C[C@H](NC(=O)[C@@H](NC(=O)CNC(=O)c1ccccc1)C(C)C)C(=O)N[C@@H](CCCCNC(=O)C[C@@H](SCc1cccc(C(F)(F)F)c1)C(=O)O)C(=O)N[C@@H](CCC(=O)O)C(=O)N[C@@H](Cc1ccc(O)cc1)C(=O)NCC(=O)N[C@H](C(N)=O)C(C)C (Bz-GVLK(X71)EYGV-NH2)	1150 nM	
